Results: patent publication US20210337789A1, “Derivatives of m-Guaiacol, Their Preparation and Their Uses” (Universite de Caen Normandie, priority 2018, published 2021)

What was measured:
[1] = test system: Micrococcus luteus reference strain; assay: Bacterial growth (optical density at 600 nm) on Micrococcus luteus reference strain; format: cell-based; parameters: key: 0 = no effect, 1 = pure only, 2 = several concentrations, 3 = strong at all; conditions: in DMSO diluted in PBS, compared with triclosan
Description: (§1) The bacterial growth is evaluated by measuring the optical density (DO) at 600 nm using NanoDrop.
(§2) This ratio permits a classification of the molecules in 4 effect levels: • 0=no effect observed; • 1=effect observed only when the molecule is tested pure; • 2=effect observed at several concentrations, but which gradually decreases the dilutions; • 3=strong effect observed at each concentration of molecule tested.
The molecules are put in a solution in DMSO and diluted in PBS.

[2] = test system: KB cells (epidermoid carcinoma); assay: In vitro cytotoxicity, cell proliferation test (MTS) on KB cells; format: cell-based; conditions: Homo sapiens, KB cells, triplicate, 72 hours of exposure, with respect to DMSO control, read-out: percentage of inhibition of cell growth
Description: The human cell strain KB (epidermoid carcinoma) was obtained from the NCI (National Cancer Institute) and cultivated in the D-MEM medium added with 10% of foetal bovine serum (Invitrogen) in the presence of penicillin, streptomycin and fungizone in flasks of […] under CO2 at 5%. The cells were deposited on tissue culture microplates with 96 wells and a density of 650 cells/well in 200 μl of medium and treated 24 hours later with compounds of the invention dissolved in DMSO at concentrations going from 0.5 nM to 10 μM using a Biomek 3000 (Beckman-Coulter) automaton. The controls received the same volume of DMSO (1% of final volume). After 72 hours of exposure, the MTS reagent (Celltiter 96Aqueous One solution, Promega) was added and incubated for 3 hours at 37° C.: the absorbance was measured at 490 nm and the results of inhibition of the cell proliferation were calculated according to the ratio [(1−(OD490treated/OD490control))×100].
Results: Cytotoxicity at 10^−5 and 10^−6M on Triplicate KB Cells, Measured after 72 Hours of Exposure.
The percentage of inhibition of cell growth with respect to the cells receiving the same quantity of DMSO is outlined in the table below.

[3] = test system: E. coli strains presenting high levels of resistance; assay: Bacterial growth on E. coli strains presenting high levels of resistance; format: cell-based, Escherichia coli; parameters: key to Effects (0 < 1 < 2 < 3): 0 = no effect; 1 = pure only; 2 = several concs; 3 = strong at each; key to Δ DO: change in optical density measured at 600 nm; conditions: for Effects (0 < 1 < 2 < 3): molecules at 1, 0.5 and 0.1 mg/ml, triclosan at 0.1 mg/ml
Description: as §1, §2
(§3) Compounds of the invention were tested on 4 strains of E. coli, 3 strains of K. pneumoniae and 4 strains of S. aureus with the resistance profiles below.

[4] = test system: Streptococcus equi subsp zooepidemicus; assay: Bacterial growth screening on wild-type phenotype strain, S. zooepidemicus; format: cell-based
Description: as §1, §2
(§4) A screening of molecules of the invention on several wild-type phenotype strains has been carried out.
(§5) The strains initially selected are: • Gram+: Streptococcus equi subsp zooepidemicus and Staphylococcus aureus • Gram−: Escherichia coli, Klebsiella pneumoniae and Stenotrophomonas maltophila.

[5] = test system: S. aureus strains presenting high levels of resistance; assay: Bacterial growth on S. aureus strains presenting high levels of resistance; format: cell-based, Staphylococcus aureus; parameters: key to Effects (0 < 1 < 2 < 3): 0 = no effect; 1 = pure only; 2 = several concs; 3 = strong at each; key to Δ DO: change in optical density measured at 600 nm; conditions: for Effects (0 < 1 < 2 < 3): molecules at 1, 0.5 and 0.1 mg/ml, triclosan at 0.1 mg/ml
Description: as §1, §2, §3

[6] = test system: K. pneumoniae strains presenting high levels of resistance; assay: Bacterial growth on K. pneumoniae strains presenting high levels of resistance; format: cell-based, Klebsiella pneumoniae; parameters: key to Effects (0 < 1 < 2 < 3): 0 = no effect; 1 = pure only; 2 = several concs; 3 = strong at each; key to Δ DO: change in optical density measured at 600 nm; conditions: for Effects (0 < 1 < 2 < 3): molecules at 1, 0.5 and 0.1 mg/ml, triclosan at 0.1 mg/ml
Description: as §1, §2, §3

Escherichia coli = assay: Bacterial growth screening on wild-type phenotype strain, E. coli; format: cell-based
Description: as §1, §2, §4, §5

[7] = test system: Stenotrophomonas maltophila; assay: Bacterial growth screening on wild-type phenotype strain, S. maltophila; format: cell-based
Description: as §1, §2, §4, §5

Staphylococcus aureus = assay: Bacterial growth screening on wild-type phenotype strain, S. aureus; format: cell-based
Description: as §1, §2, §4, §5

Klebsiella pneumoniae = assay: Bacterial growth screening on wild-type phenotype strain, K. pneumoniae; format: cell-based
Description: as §1, §2, §4, §5

## COc1cc(O)c(Cl)c(Br)c1Cl [sr7616]
[1]
  Effect level: 3
[2]; 10^−5 M
  inhibition at 10 µM: 0%
[2]; 10^−6 M
  inhibition at 1 µM: 0%
[3]; E. coli Strain 1, 0.1 mg/ml
  Δ DO: 0.089
[3]; E. coli Strain 1, 0.5 mg/ml
  Δ DO: 0.640
[3]; E. coli Strain 1, 1 mg/ml
  Δ DO: 0.857
[3]; E. coli Strain 1
  Effects (0 < 1 < 2 < 3): 2
[3]; E. coli Strain 2, 0.1 mg/ml
  Δ DO: 0.331
[3]; E. coli Strain 2, 0.5 mg/ml
  Δ DO: 0.854
[3]; E. coli Strain 2, 1 mg/ml
  Δ DO: 1.069
[3]; E. coli Strain 2
  Effects (0 < 1 < 2 < 3): 3
[3]; E. coli Strain 3, 0.1 mg/ml
  Δ DO: 0.141
[3]; E. coli Strain 3, 0.5 mg/ml
  Δ DO: 0.679
[3]; E. coli Strain 3, 1 mg/ml
  Δ DO: 0.825
[3]; E. coli Strain 3
  Effects (0 < 1 < 2 < 3): 3
[3]; E. coli Strain 4, 0.1 mg/ml
  Δ DO: 0.308
[3]; E. coli Strain 4, 0.5 mg/ml
  Δ DO: 0.868
[3]; E. coli Strain 4, 1 mg/ml
  Δ DO: 0.853
[3]; E. coli Strain 4
  Effects (0 < 1 < 2 < 3): 3
[4]
  Effect level, S. zooepidemicus: 3
[5]; S. aureus Strain 1, 0.1 mg/ml
  Δ DO: 0.276
[5]; S. aureus Strain 1, 0.5 mg/ml
  Δ DO: 0.443
[5]; S. aureus Strain 1, 1 mg/ml
  Δ DO: 0.445
[5]; S. aureus Strain 1
  Effects (0 < 1 < 2 < 3): 3
[5]; S. aureus Strain 2, 0.1 mg/ml
  Δ DO: 0.303
[5]; S. aureus Strain 2, 0.5 mg/ml
  Δ DO: 0.458
[5]; S. aureus Strain 2, 1 mg/ml
  Δ DO: 0.459
[5]; S. aureus Strain 2
  Effects (0 < 1 < 2 < 3): 3
[5]; S. aureus Strain 3, 0.1 mg/ml
  Δ DO: 0.299
[5]; S. aureus Strain 3, 0.5 mg/ml
  Δ DO: 0.529
[5]; S. aureus Strain 3, 1 mg/ml
  Δ DO: 0.525
[5]; S. aureus Strain 3
  Effects (0 < 1 < 2 < 3): 3
[5]; S. aureus Strain 4, 0.1 mg/ml
  Δ DO: 0.291
[5]; S. aureus Strain 4, 0.5 mg/ml
  Δ DO: 0.491
[5]; S. aureus Strain 4, 1 mg/ml
  Δ DO: 0.491
[5]; S. aureus Strain 4
  Effects (0 < 1 < 2 < 3): 3
[6]; K. pneumoniae Strain 1, 0.1 mg/ml
  Δ DO: 0.236
[6]; K. pneumoniae Strain 1, 0.5 mg/ml
  Δ DO: 0.594
[6]; K. pneumoniae Strain 1, 1 mg/ml
  Δ DO: 0.646
[6]; K. pneumoniae Strain 1
  Effects (0 < 1 < 2 < 3): 3
[6]; K. pneumoniae Strain 2, 0.1 mg/ml
  Δ DO: 0.151
[6]; K. pneumoniae Strain 2, 0.5 mg/ml
  Δ DO: 0.641
[6]; K. pneumoniae Strain 2, 1 mg/ml
  Δ DO: 0.686
[6]; K. pneumoniae Strain 2
  Effects (0 < 1 < 2 < 3): 2
[6]; K. pneumoniae Strain 3, 0.1 mg/ml
  Δ DO: 0.213
[6]; K. pneumoniae Strain 3, 0.5 mg/ml
  Δ DO: 0.652
[6]; K. pneumoniae Strain 3, 1 mg/ml
  Δ DO: 0.847
[6]; K. pneumoniae Strain 3
  Effects (0 < 1 < 2 < 3): 2
Escherichia coli
  Effect level, E. coli: 3
[7]
  Effect level, S. maltophila: 2
Staphylococcus aureus
  Effect level, S. aureus: 2
Klebsiella pneumoniae
  Effect level, K. pneumoniae: 3
